Test results as given in patent US20080131511A1, “Pharmaceutical Composition for Treatment of Tear and Salivary Fluid Drying” (Astellas Pharma, Inc., priority 2004, published 2008).

Key:
Format in all cases: in vivo, mouse (male Balb/c)
[1] = tested on: ornithine decarboxylase (ODC) activity of parotid salivary gland; assay: Ornithine decarboxylase activity of parotid salivary gland, subcutaneous continuous administration; settings: mice, ODC activity 10 hours after implantation
Method: (§1) Male Balb/c mice were used in the test.
(§2) The compound A was dissolved in physiological saline to a concentration of 0.625, 1.25, 2.5, 5.0, 10 or 20 mg/200 μl, and filled each pump (Alzet mini-osmotic pump 2001D, 8 μl/h, 1 day; DURECT Corporation) with about 200 μl portions It means, that is, each pump releases at a rate of 0.025, 0.05, 0.1, 0.2, 0.4 or 0.8 mg compound A/h, respectively. About 5 mm of dorsal epidermis of a mouse anesthetized with diethyl ether was incised, the osmotic pump already filled with the compound A was subcutaneously implanted, and then the skin was stitched. Secreted amounts of salivary and tear fluid and sweating were periodically measured from just before the implantation of pump until 32 hours after the administration. The ornithine decarboxylase activity was measured 10 hours after the implantation.
(§3) Pilocarpine was dissolved in physiological saline to a concentration of 0.039, 0.078, 0.16 or 0.31 mg/200 μl, or cevimeline to a concentration of 0.16, 0.31, 0.63 or 1.3 mg/200 μl, and filled the osmotic pump (Alzet mini-osmotic pump 2001 D, 8 μl/h, 1 day; DURECT Corporation) with about 200 μl portions. It means, that is, each pump releases at a rate of 0.00156, 0.00312, 0.0064 or 0.0124 mg/h (pilocarpine) or 0.0064, 0.0124, 0.0252 or 0.05 mg/h (cevimeline). About 5 mm of dorsal epidermis of a mouse anesthetized with diethyl ether was incised, the osmotic pump already filled with pilocarpine or cevimeline was subcutaneously implanted, and then the skin was stitched. Secreted amounts of salivary and tear fluid and sweating were periodically measured from just before the implantation of pump until 32 hours after the administration. The ornithine decarboxylase activity was measured 10 hours after the implantation.
Thus, it can be easily analogized that the ODC activity becomes a useful index of cell growth and function of the exocrine gland. Accordingly, the ability of each drug to activate glandular tissue was evaluated by measuring ODC activity of parotid salivary gland and extra-orbital lacrimal gland.
The amount of ^14CO2 formed from L-^14C-ornithine was used as the index of ODC activity.
A mouse anesthetized with diethyl ether was sacrificed by bleeding, and left and right parotid salivary glands and extra-orbital lacrimal glands were isolated. After removing the attached connective tissue and fat, the isolated glandular tissues homogenized in 1.5 ml of a homogenate buffer (25 mM Tris-HCl buffer (pH 7.4) containing 0.1 mM ethylenediaminetetraacetic acid, 0.4 mM pyridoxal phosphate, 5 mM dithiothreitol and 0.1% Brij 35®) using a Potter type homogenizer and then centrifuged at 4° C., 15,000 g for 30 minutes, and the supernatant was used as the enzyme fraction. Reaction of the enzyme and substrate was carried out by adding 100 μl of a substrate solution (the homogenate buffer containing 300 μM DL-ornithine and 5 μCi L-^14C-ornithine) to 900 μl of the enzyme liquid whose protein concentration had been adjusted to 2.5 mg/ml and incubating at 37° C. for 1 hour in a sealed tube, and the reaction was terminated by the addition of 100 μl of 2 M H2SO4. The ^14CO2 generated by the reaction was captured by 150 μl of 1 N NaOH soaked in a glass filter. Radioactivity of the ^14CO2 captured on the glass filter was detected using a liquid scintillation counter. The enzyme activity (pmol ^14CO2/mg protein/hour) was calculated from the measured results.
(§4) All of the test results were expressed as fold increases of the reactions of the drug-administered group versus those of the vehicle-administered group, and comparison between the drug-administered groups and the vehicle-administered group was carried out using Dunnett's t-test. P<0.05 was considered significant. Results

[2] = tested on: lacrimal gland; assay: Tear fluid secretion after subcutaneous bolus administration; settings: mice
Method: as §1
(§5) The compound A was dissolved in physiological saline to a concentration of 1, 3, 10, 30 or 100 mg/5 ml, and 5 ml/kg of the drug solution was administered under the dorsal skin. Secreted amounts of salivary and tear fluid were measured just before the administration of compound A and 10, 20, 30, 40 and 50 minutes after the administration. The sweating action was measured 10 minutes after the administration. Also, the growth acceleration action was measured 6 hours after the administration.
as §5, with “Pilocarpine was dissolved” for “The compound A was dissolved”, “concentration of 0.03, 0.1, 0.3, 1, 3 or 10 mg/5 ml, or cevimeline to a concentration of 0.3, 1, 3,” for “concentration of 1, 3,”, “administration of pilocarpine or cevimeline and 10,” for “administration of compound A and 10,”
(§6) The mouth of a mouse was wiped with a cotton ball whose weight had been measured in advance, and the incremental weight was used as the amount of salivary fluid. Also at the same time, a thread for tear fluid measurement (Zone Quick; Menicon) used on the Schirmer test was inserted into the lower eyelid conjunctival sac, and the length of colored part was measured and used as the amount of tear fluid. From the measurement results, area under the secreted amount-versus-time curve (AUC) was calculated.
as §4

[3] = tested on: lacrimal gland; assay: Tear fluid secretion during subcutaneous continuous administration (osmotic pump); settings: mice, AUC of secreted amount
Method: as §1, §2, §3, §6, §4

[4] = tested on: salivary gland; assay: Salivary fluid secretion during subcutaneous continuous administration (osmotic pump); settings: mice; for Salivary fluid: AUC of secreted amount
Method: as §1, §2, §3, §6, §4

[5] = tested on: salivary gland; assay: Salivary fluid secretion after subcutaneous bolus administration; settings: mice
Method: as §1, §5
as §5, with “Pilocarpine was dissolved” for “The compound A was dissolved”, “concentration of 0.03, 0.1, 0.3, 1, 3 or 10 mg/5 ml, or cevimeline to a concentration of 0.3, 1, 3,” for “concentration of 1, 3,”, “administration of pilocarpine or cevimeline and 10,” for “administration of compound A and 10,”
as §6, §4

[6] = s.c. osmotic pump 0.16 mg (0.0064 mg/h)
[7] = s.c. osmotic pump 0.31 mg (0.0124 mg/h)
[8] = s.c. bolus 0.03 mg/kg, 10 minutes after administration
[9] = s.c. bolus 0.1 mg/kg, 10 minutes after administration
[10] = s.c. bolus 0.3 mg/kg, 10 minutes after administration
[11] = s.c. bolus 1 mg/kg, 10 minutes after administration (Table 3)
[12] = s.c. bolus, 10 minutes after administration
[13] = s.c. osmotic pump 0.039 mg (0.00156 mg/h)
[14] = s.c. osmotic pump 0.078 mg (0.00312 mg/h)

CC[C@@H]1C(=O)OC[C@@H]1Cc1cncn1C [pilocarpine]
Glandular cell growth Salivary gland [1, 6]: 0.42 ± 0.06 fold increase vs. vehicle group | Glandular cell growth Salivary gland [1, 7]: 1.1 ± 0.20 fold increase vs. vehicle group | Tear fluid [2, 8]: 0.65 ± 0.19 fold increase vs. the vehicle group | Tear fluid [2, 9]: 0.80 ± 0.24 fold increase vs. the vehicle group | Tear fluid [2, 10]: 1.1 ± 0.14 fold increase vs. the vehicle group | Tear fluid [2, 11]: 2.7 ± 0.40 fold increase vs. the vehicle group | dose at which statistically significant acceleration of tear fluid secretion was attained [2, 12]: 1 mg/kg | Tear fluid [3, 13]: 0.81 ± 0.02 fold increase vs. vehicle group | Tear fluid [3, 14]: 1.1 ± 0.13 fold increase vs. vehicle group | Tear fluid [3, 6]: 1.1 ± 0.14 fold increase vs. vehicle group | Tear fluid [3, 7]: 1.1 ± 0.12 fold increase vs. vehicle group | dose at which salivary fluid secretion acceleration action reached maximum ([4]; s.c. continuous administration): 0.16 mg | Salivary fluid [4, 13]: 1.1 ± 0.04 fold increase vs. vehicle group | Salivary fluid [4, 14]: 1.5 ± 0.08 fold increase vs. vehicle group | Salivary fluid [4, 6]: 2.9 ± 0.14 fold increase vs. vehicle group | Salivary fluid [4, 7]: 2.8 ± 0.24 fold increase vs. vehicle group | Salivary fluid [5, 8]: 1.2 ± 0.15 fold increase vs. the vehicle group | Salivary fluid [5, 9]: 1.8 ± 0.23 fold increase vs. the vehicle group | Salivary fluid [5, 10]: 1.7 ± 0.15 fold increase vs. the vehicle group | Salivary fluid [5, 11]: 2.0 ± 0.18 fold increase vs. the vehicle group | dose at which statistically significant acceleration of salivary fluid secretion was attained [5, 12]: 0.1 mg/kg | time after administration at which secretion amount of salivary and tear fluid reached maximum ([5]; s.c. bolus, every dose): 10 min
